Test results: patent US20240156982A1, “METHOD OF FORMING PEPTIDE-COATED NANOPARTICLES” (Research Foundation of the City University of New York, priority 2022, published 2024)

Tests used:
HUVEC = assay: MTT viability assay; type: cell-based, human
Experimental: (§1) FIG. 8 depicts a series of graphs showing in vitro viability with RGDFFF (SEQ ID NO: 1)-CA4 NP. Each column represents the mean and standard deviation of N=3 and p<0.005 (HUVEC, OVCAR-3), p<0.04 (TOV-21G, OV-90), p<0.03 (CP70), p<0.02 (A2780), p<0.01 (ES-2), p<0.12 (SKOV-3).
(§2) The biological activity of RGDFFF (SEQ ID NO: 1)-CA4 NPs in cell culture was also evaluated. As determined by HPLC, the CA4 drug payload in the NP was 0.2 wt. %. First, IC50 values were established for the NPs in all cells and subsequently performed MTT viability assays in HUVEC and OvCA cells using the respective IC50 values. The RGDFFF-CA4 NPs were compared to cells only without treatment, free CA4, and empty RGDFFF (SEQ ID NO: 1)-NPs without CA4, as shown in FIG. 8. […] Optical microscopy was used to examine the morphological changes in the cells after incubation with RGDFFF (SEQ ID NO: 1)-CA4 NP. This was done since CA4 is a microtubule depolymerizing agent that disrupts internal cell architecture.

A2780 = assay: MTT viability assay; type: cell-based
Experimental: as §1, §2

SKOV-3 = assay: MTT viability assay; type: cell-based
Experimental: as §1, §2

OV-90 = assay: MTT viability assay; type: cell-based
Experimental: as §1, §2

CP70 = assay: MTT viability assay; type: cell-based
Experimental: as §1, §2

OVCAR-3 = assay: MTT viability assay; type: cell-based
Experimental: as §1, §2

TOV-21G = assay: MTT viability assay; type: cell-based
Experimental: as §1, §2

ES-2 = assay: MTT viability assay; type: cell-based
Experimental: as §1, §2

[1] = cited from earlier work

COc1ccc(/C=C\c2cc(OC)c(OC)c(OC)c2)cc1O [CA4, combretastatin A4]
IC50 (HUVEC): 2 nM
IC50 (A2780): 5 nM
IC50 (SKOV-3): 10 nM
IC50 (OV-90): 100 nM
IC50 (CP70): 4 nM
IC50 (OVCAR-3): 2.5 nM
IC50 (TOV-21G): 25 nM
IC50 (ES-2): 5 nM
solubility in water [1]: not soluble in water
